Data set [1] is described as follows: In vivo pharmacokinetics (PFC microdialysis and plasma). On the set-up: species or system mouse. The settings on record: after gavage with 100 mg/kg; sustained over several hours. The method, then: Mice were anesthetized using isoflurane (2% and 800 mL/min 02). Before surgery, Finadyne (1 mg/kg, s.c.) was administered for analgesia during surgery and the post-surgical recovery period. A mixture of bupivacaine and epinephrine was used for local anesthesia of the incision site of the periost of the skull.
The animals were placed in a stereotaxic frame (Kopf instruments, USA). MetaQuant microdialysis probes with a 3 mm exposed polyacrylonitrile membrane (MQ-PAN 3/3, Brainlink, the Netherlands) were implanted into the prefrontal cortex (coordinates for the tip of the probe: AP=+2.0 mm (to bregma), lateral=−0.7 mm (to midline), ventral=−3.3 mm (to dura), with the incisor bar set at 0.0 mm and an angle of 8°). All coordinates were based on “The mouse brain in stereotaxic coordinates” by Paxinos and Franklin (2004). The probes were attached to the skull with a stainless steel screw and dental cement (Fuji Plus Capsules, Henry Schein, the Netherlands).
In the same surgical procedure, a catheter was placed into the jugular vein to accommodate blood sampling. An indwelling cannula was inserted into the right jugular vein, and exteriorized through an incision on top of the skull. […]
PK was measured for GP-04, GP-05, GP-07, GP-R1 and GP-P1 in the PFC (prefrontal cortex) and plasma of wild type C56Bl/6 mice by CRO Brainsonline.

Data set [2] deals with primary mouse astrocytes. In words: Extracellular medium acidification (SNARF5), Example 2. The class given is cell-based. The settings on record: Astrocyte, 3 nM to 30 μM, 1.5 h and 3 h. Here is the method: (§1) Primary cultures of cerebrocortical astrocytes were obtained from 1 to 2-day-old OF1 mouse pups (Charles River). Briefly, cortices were isolated and minced in small pieces under a dissecting microscope. The cells were incubated for 30 min at 37° C. in a solution containing 20 U/ml papain, 1 mM L-cysteine and 10 kU/ml DNase I. After dissociation, papain activity was stopped by the addition of fetal calf serum (FCS). Single-cell suspension was then obtained by mechanical dissociation, which consisted in cells trituration in a DMEM D7777 medium supplemented with 44 mm NaHCO3, 10 ml/L antibiotic/antimycotic solution and 10% FCS. […]
Secretion of lactate was measured indirectly through the acidification of extracellular medium using extracellular pH sensor SNARE-5F-(AND-6)-CAR (SNARF5). […] After 90 min stimulation, fluorescence was read at exc. […] The ratio of fluorescence between 630 nm and 580 emission values, which is proportional to extracellular pH, was calculated. […]
The extracellular medium acidification in primary mouse astrocytes treated with GP-A1 was quantified (FIG. 13). Extracellular medium acidification was measured over a period of 1.5 h and 3 h.

Data set [3] deals with primary mouse astrocytes. The experiment in a line: Extracellular lactate quantification, Example 2. The class given is cell-based. To be noted: Astrocyte, 3 nM to 30 μM, 1.5 h, read-out: EC50 release of lactate. The method, then: as §1
Secretion of L-lactate was measured in the extracellular medium of 96-well plated astrocytes after 90 min stimulation (at 37° C., in 5% CO2/95% air conditions) with Vehicle (DMSO), the compounds of the invention (100 nM to 100 μM) or positive control. […] To quantify lactate concentrations in the extracellular medium, 200 μl of a 0.2M Glycine-semicarbazide buffer (pH 10) containing 3 mM NAD and 14 U/ml LDH was added to each well of a 96-well plate containing 30 μl aliquots of extracellular medium. […] Fluorescence intensity (340 nm excitation/450 nm emission), which represents the amount of NADH produced, was measured, and lactate concentration values were determined relative to a standard curve of L-lactate concentrations. […]

For the compound `CC(=O)N1CCc2sc(S(=O)(=O)N3CCN(c4ccccc4C)CC3)cc2C1` [P025-0159], in data set [1], the “Levels in the PFC” value is listed as “need chemical improvement to reach their target at therapeutic dose in the brain”.
For the compound `COc1cc(C)c(Cl)cc1S(=O)(=O)NCc1ccncc1` [T5580243], the “Levels in the PFC” value in data set [1] was “at therapeutic range (100 nM to 1 uM)”.
As a reminder, the EC50 is the concentration needed to bring the measured effect to its halfway point. Turning to `Cc1ccccc1NC(=O)C1CCCN(c2ncnc3oc(C)c(C)c23)C1` (stereo not shown) [F228-0422], the values for the EC50 in data set [2] and in data set [3] were 370 to 480 nM and 590 nM, respectively.

These data come from patent publication US12274703B2, “Compositions and methods of treatment for neurological disorders comprising a dementia” (Gliapharm SA, priority 2017, dated 2025).
